The text below walks through data of publication PMC7321178 (Molecules, 2020).

Assay [1] deals with T1, AChE from Electrophorus electricus (eeAChE) (Electrophorus electricus, UniProt O42275).
T1 construct: purchased Sigma–Aldrich (Steinheim, Germany)
The assay is described as follows: biochemical. To be noted: for inhibition at 10 µM: read-out: % Inhibition +/- SD (eeAChE). On the procedure: (§1) Compounds selected through virtual screening were tested for their ability to inhibit the activity of selected biological targets. The cholinesterase-inhibitory potency of the compounds was evaluated according to Ellman’s method using AChE obtained from E. electricus (eeAChE) and BuChE obtained from equine serum (eqBuChE).
(§2) The following reagents were purchased from Sigma–Aldrich (Steinheim, Germany): 5,5′-dithiobis-(2-nitrobenzoic acid) (DNTB), acetylthiocholine iodide (ATC), butyrylthiocholine iodide (BTC), AChE from Electrophorus electricus, and BuChE from horse serum. […] The biological assay was performed using Ellman’s method which was modified for 24-well plates. For this assay, 25 µL of the tested compounds or water (in the blank samples) and 20 µL of the enzyme in 765 µL of the buffer were incubated for 5 min at 25 °C before starting the reaction. Then, 20 µL of DTNB and 20 µL of the ATC/BTC solutions were added. […] To determine the IC50 value, the absorbance measured at six different concentrations of the inhibitor was converted to % inhibition of the enzyme and plotted against the applied concentration of the inhibitor, using nonlinear regression (GraphPad Prism 5; GraphPad Software, San Diego, CA, USA). […] All the reactions were performed in triplicate. Data are expressed as the mean ± SEM.

The target of assay [2] is T2, BuChE from equine serum (eqBuChE) (Equus caballus, UniProt P81908).
T2 construct: BuChE obtained from equine serum (eqBuChE); purchased Sigma–Aldrich (Steinheim, Germany); host or cells: horse serum
T2 sequence (P81908 whole entry): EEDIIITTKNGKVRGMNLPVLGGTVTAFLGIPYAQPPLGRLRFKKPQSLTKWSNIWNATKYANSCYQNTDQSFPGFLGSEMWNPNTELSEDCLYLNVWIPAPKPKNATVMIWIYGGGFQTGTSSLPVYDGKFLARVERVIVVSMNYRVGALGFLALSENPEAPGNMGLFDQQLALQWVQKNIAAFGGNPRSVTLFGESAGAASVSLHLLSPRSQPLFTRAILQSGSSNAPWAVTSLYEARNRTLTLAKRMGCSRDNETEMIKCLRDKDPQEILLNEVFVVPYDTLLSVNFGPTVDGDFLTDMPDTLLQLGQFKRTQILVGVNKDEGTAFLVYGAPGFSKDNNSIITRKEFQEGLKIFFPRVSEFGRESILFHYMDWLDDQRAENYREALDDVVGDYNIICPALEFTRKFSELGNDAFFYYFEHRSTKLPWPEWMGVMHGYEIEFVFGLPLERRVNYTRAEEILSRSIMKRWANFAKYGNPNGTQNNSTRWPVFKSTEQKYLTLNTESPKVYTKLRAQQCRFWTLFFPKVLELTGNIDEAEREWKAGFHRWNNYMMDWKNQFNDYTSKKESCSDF
Put plainly: biochemical. The note with it: for inhibition at 10 µM: 10 µM compound concentration, mean ± standard deviation, read-out: % Inhibition +/- SD (eqBuChE). The method, then: as §1, §2

The target in the next assay is T3, eeAChE (Electrophorus electricus, UniProt O42275).
T3 construct: purchased Sigma–Aldrich (Steinheim, Germany)
T3 sequence (O42275 24-633): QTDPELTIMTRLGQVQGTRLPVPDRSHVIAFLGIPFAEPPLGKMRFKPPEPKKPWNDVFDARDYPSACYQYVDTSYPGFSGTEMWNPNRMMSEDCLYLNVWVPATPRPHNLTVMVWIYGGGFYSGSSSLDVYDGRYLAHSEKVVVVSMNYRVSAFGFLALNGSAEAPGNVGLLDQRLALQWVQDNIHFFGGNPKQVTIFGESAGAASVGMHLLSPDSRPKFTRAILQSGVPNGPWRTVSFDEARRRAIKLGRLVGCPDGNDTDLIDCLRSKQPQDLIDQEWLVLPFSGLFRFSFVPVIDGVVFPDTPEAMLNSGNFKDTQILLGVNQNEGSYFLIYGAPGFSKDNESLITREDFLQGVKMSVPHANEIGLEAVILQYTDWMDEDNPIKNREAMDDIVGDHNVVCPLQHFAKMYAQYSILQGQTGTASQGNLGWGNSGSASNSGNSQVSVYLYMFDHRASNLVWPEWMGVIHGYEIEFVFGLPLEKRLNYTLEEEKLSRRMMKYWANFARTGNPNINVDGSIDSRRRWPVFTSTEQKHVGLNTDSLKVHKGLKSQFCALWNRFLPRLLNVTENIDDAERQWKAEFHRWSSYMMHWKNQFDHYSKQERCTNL
The assay is described as follows: Kinetic studies of eeAChE inhibition (Lineweaver-Burk, Cornish-Bowden plots). Type of assay: biochemical. The note with it: substrate acetylthiocholine. On the procedure: This was carried out by making use of the calculated values of Vmax and Km of the Michaelis–Menten kinetics and further through analyzing the Lineweaver–Burk and Cornish-Bowden reciprocal plots.
Kinetic studies were carried out by following Ellman’s method modified for 96-well plates, using different concentrations of the substrate. The stock solutions of ATC and BTC (0.02125 M) were prepared in water and diluted before use. The aqueous stock solutions of enzymes (5 U/mL) were diluted to a final concentration of 0.384 U/mL. For each concentration of the test compounds, ATC or BTC was used at a concentration of 0.3, 0.24, 0.18, 0.12, 0.06, and 0.04 mM in the wells. Lineweaver–Burk and Cornish-Bowden plots were generated using linear regression in GraphPad Prism 5 (GraphPad Software, San Diego, CA, USA). Each experiment was performed in triplicate.

Another assay concerns the target T4, eqBuChE (Equus caballus, UniProt P81908).
T4 construct: BuChE obtained from equine serum (eqBuChE); purchased Sigma–Aldrich (Steinheim, Germany); host or cells: horse serum
The assay is described as follows: Kinetic studies of eqBuChE inhibition (Lineweaver-Burk, Cornish-Bowden plots). The class given is biochemical. The note with it: substrate butyrylthiocholine. On the procedure:
[…]. This was carried out by making use of the calculated values of Vmax and Km of the Michaelis–Menten kinetics and further through analyzing the Lineweaver–Burk and Cornish-Bowden reciprocal plots. […] […].
Kinetic studies were carried out by following Ellman’s method modified for 96-well plates, using different concentrations of the substrate. The stock solutions of ATC and BTC (0.02125 M) were prepared in water and diluted before use. […]. Lineweaver–Burk and Cornish-Bowden plots were generated using linear regression in GraphPad Prism 5 (GraphPad Software, San Diego, CA, USA). Each experiment was performed in triplicate.

Where [3] appears, read: mean ± SEM of at least three experiments.
[4] abbreviates: read-out: IC50 eeAChE [µM] +/- SEM.
Where [5] appears, read: read-out: IC50 eqBuChE [µM] +/- SEM.

Each structure is given as a SMILES string. “And” between values parts separate entries of the source, which are not always exact repeats. Equal entries are not always repeated. Where two headings read alike, the source gives them in different places.

T1 sequence (O42275 24-633): as above
T4 sequence (P81908 whole entry): as the sequence (P81908 whole entry) above

As for `C(#CCN1c2cccnc2Sc2cccnc21)CN1CCCC1` [Compound 1, 10-(4-Pyrrolidin-1-yl-but-2-ynyl)-1,6-diazaphenothiazine], the inhibition at 10 µM stood at 45.4 ± 9.8% in assay [1] and 65.4 ± 3% in assay [2]. Further, the IC50 in assay [2] (setting [3]) came out at 5.75 ± 0.164 µM.

As for `CCN(C)CC#CCN1c2ccncc2Sc2ncccc21` [Compound 14], the results for the inhibition at 10 µM in assay [1] and in assay [2] were 7.7 ± 2.1% and 20.4 ± 1.9%, respectively.

Turning to `C(#CCN1c2ccncc2Sc2ccncc21)CN1CCCC1` [Compound 12], the figures for the inhibition at 10 µM in assay [1] and in assay [2] were 20.3 ± 1% and 31.4 ± 1.7%, respectively.

With `CN1CCCCC1CCN1c2cnccc2Sc2cccnc21` (stereo not shown) [Compound 9], the inhibition at 10 µM in assay [1] worked out at 58.1 ± 4.1%; in assay [2], 76.4 ± 0.2%. Moreover, the IC50 is 6.55 ± 0.177 µM in assay [1] (setting [4]) and 3.03 ± 0.072 µM in assay [2] (setting [5]).

For the compound `Fc1ccc2c(c1)Sc1cc3ccccc3nc1N2CCN1CCCCC1` [Compound 23, 9-Fluoro-6-(1-piperidylethyl)quinobenzothiazine], the inhibition at 10 µM in assay [1] is 27 ± 2.8%; in assay [2] it was 97.7 ± 0.5%. Also, the IC50 in assay [2] (setting [5]) was 0.46 µM and 0.463 µM.

Consider `Fc1ccc2c(c1)Sc1cc3ccccc3nc1N2` [Compound 19], for which the inhibition at 10 µM in assay [1] turned out to be 6.6 ± 1.3%; in assay [2], 81 ± 1.4%. In addition, in assay [2] (setting [5]), the IC50 turned out to be 1.02 ± 0.028 µM.

As for `C(#CCN1c2cccnc2Sc2cccnc21)CN1CCOCC1` [Compound 3, 10-(4-Morpholin-4-yl-but-2-ynyl)-1,6-diazaphenothiazine], the inhibition at 10 µM in assay [1] stood at 13.7 ± 1.5%; in assay [2], 63.6 ± 2.4%. The compound also returned an IC50 in assay [2] (setting [3]) of 9.25 ± 0.275 µM.

In the case of `C(#CCN1c2ccncc2Sc2ccncc21)CN1CCCCC1` [Compound 13], the inhibition at 10 µM in assay [1] is 51.6 ± 3.2%; in assay [2], 37.6 ± 1.6%. Also, the IC50 in assay [1] (setting [4]) stood at 11.3 ± 0.464 µM.

In the case of `CCN(CC)CC#CCN1c2ccncc2Sc2ncccc21` [Compound 15], the inhibition at 10 µM was determined as 10.1 ± 3.1% in assay [1] and 17.2 ± 7.3% in assay [2].

In the case of `CN(C)CCCN1c2cnccc2Sc2cccnc21` [Compound 6], the inhibition at 10 µM in assay [1] turned out to be 20.4 ± 3.6%; in assay [2] it was 85.8 ± 0.5%. Also, the IC50 in assay [2] (setting [5]) was 0.87 µM and 0.865 µM.

For `NCCCN1c2ccc(F)cc2Sc2cc3ccccc3nc21` [Compound 21], the inhibition at 10 µM came out at 6.5 ± 2.8% in assay [1] and 76.3 ± 1.2% in assay [2]. Moreover, the IC50 in assay [2] (setting [3]) amounted to 2.51 ± 0.047 µM.

Regarding `CCN(CC)CC#CCN1c2ccc(SC)cc2Sc2cc3ccccc3nc21` [Compound 24, 6-(4-diethylaminobut-2-ynyl)-9-methylthioquinobenzothiazine], the inhibition at 10 µM was 83.4 ± 1.1% in assay [1] and 95.5 ± 0.8% in assay [2]. Also, the IC50 in assay [1] (setting [4]) is 0.784 ± 0.018 µM; in assay [2] (setting [5]) it was 0.535 ± 0.013 µM. Also, the “type of eeAChE inhibition” value on eeAChE is listed as “noncompetitive”. Besides, the “type of eqBuChE inhibition” value at eqBuChE was “noncompetitive”.

On to `NCCCCN1c2ccc(F)cc2Sc2cc3ccccc3nc21` [Compound 22], for which the inhibition at 10 µM in assay [1] was 2.3 ± 2.1%; in assay [2] it was 64.7 ± 1%. Further, the IC50 in assay [2] (setting [3]) was found to be 3.93 ± 0.196 µM.

Consider `c1cnc2c(c1)Sc1ccncc1N2CCN1CCCCC1` [Compound 8], for which the inhibition at 10 µM in assay [1] was determined as 33.5 ± 1.6%; in assay [2] it was 66 ± 3.4%. Moreover, the IC50 in assay [2] (setting [5]) came to 4.44 ± 0.049 µM.

`CN1c2ccc(F)cc2Sc2cc3ccccc3nc21` [Compound 20]: the inhibition at 10 µM in assay [1] worked out at 3 ± 1.6%; in assay [2], 35.3 ± 12.3%.

Regarding `O=C1c2ccccc2C(=O)N1CCCN1c2cccnc2Sc2cccnc21` [Compound 5], the inhibition at 10 µM in assay [1] was found to be 7.3 ± 0.9%; in assay [2], 52.5 ± 5.9%. In assay [2] (setting [3]), the IC50 came out at 10.1 ± 0.441 µM.

Turning to `O=C1c2ccccc2C(=O)N1CCCN1c2cnccc2Sc2cccnc21` [Compound 10], the inhibition at 10 µM in assay [1] amounted to 49.6 ± 1.3%; in assay [2] it was 71.9 ± 4.3%. For the same compound, in assay [2] (setting [5]), the IC50 worked out at 3.67 ± 0.054 µM.

With `C(#CCN1c2ccncc2Sc2ncccc21)CN1CCCC1` [Compound 16], the values for the inhibition at 10 µM in assay [1] and in assay [2] were 21.9 ± 5.7% and 58.5 ± 9%, respectively. In assay [2] (setting [3]), this compound registered an IC50 of 10.4 ± 0.308 µM.

`CCN(CC)CC#CCN1c2ccncc2Sc2ccncc21` [Compound 11]: the figures for the inhibition at 10 µM in assay [1] and in assay [2] were 20.1 ± 1.4% and 20.7 ± 0.9%, respectively.

In the case of `C(#CCN1c2cccnc2Sc2cccnc21)CN1CCCCC1` [Compound 2, 10-(4-Piperidin-1-yl-but-2-ynyl)-1,6-diazaphenothiazine], the IC50 in assay [1] (setting [3]) was 8.31 ± 0.315 µM; in assay [2] (setting [3]), 8.94 ± 0.239 µM. For the same compound, the inhibition at 10 µM in assay [1] is 60.3 ± 8.8%; in assay [2], 56.6 ± 2.4%.

Take `CN1CCCCC1CCN1c2cccnc2Sc2cccnc21` (stereo not shown) [Compound 4]: the inhibition at 10 µM in assay [1] was found to be 22.4 ± 1.1%; in assay [2] it was 57 ± 7.4%. In assay [2] (setting [3]), this compound gave an IC50 of 9.49 ± 0.33 µM.

Consider `CSc1ccc2c(c1)Sc1cc3ccccc3nc1N2CC#CCN1CCCC1` [Compound 25], for which the inhibition at 10 µM came to 78 ± 1.4% in assay [1] and 99.9 ± 0.7% in assay [2]. Moreover, the results for the IC50 in assay [1] (setting [4]) and in assay [2] (setting [5]) were 2.22 ± 0.062 µM and 0.506 ± 0.014 µM, respectively.

Regarding `CN1CCCCC1CCN1c2ccncc2Sc2ncccc21` (stereo not shown) [Compound 17], the inhibition at 10 µM in assay [1] was determined as 33 ± 4.5%; in assay [2], 16.1 ± 0.7%.

As for `O=C1c2ccccc2C(=O)N1CCCN1c2ccncc2Sc2ncccc21` [Compound 18], in assay [1] (setting [3]), the IC50 was 4.26 ± 0.078 µM. Further, the results for the inhibition at 10 µM in assay [1] and in assay [2] were 72.2 ± 0.7% and 30.5 ± 5.7%, respectively.

Turning to `C(#CCN1c2cnccc2Sc2cccnc21)CN1CCCC1` [Compound 7], the inhibition at 10 µM in assay [1] amounted to 57.3 ± 0.4%; in assay [2], 91.1 ± 0.8%. For the same compound, the IC50 in assay [1] (setting [4]) was 10 ± 0.604 µM; in assay [2] (setting [5]), 0.929 ± 0.016 µM.
